According to patent US11028090B2 (Dong Wha Pharm. Co., Ltd., priority 2017, dated 2021):
Read-outs that look alike come from different tables or passages of the source.

Target: BRD4 (BD1+BD2) bromodomain (Homo sapiens (Human), UniProt O60885)
Experiment: BRD4 binding inhibition (AlphaScreen, GST-BRD4 vs tetraacetylated histone H4 peptide)
Procedure, shortened: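 GST-BRD4 (BD1+BD2) and biotinylated tetraacetyl-histone H4 peptide, each at 100 nM in HEPES pH 7.4 buffer with BSA and DTT, were combined with compound. Glutathione acceptor and streptavidin donor beads were added, then incubated 30 min at room temperature in the dark. Read-out was AlphaScreen signal.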

[1] = GST-BRD4 (BD1+BD2) / biotinylated acetyl-histone H4 (Lys5,8,12,16) peptide, read-out: IC50, BRD4 binding inhibition
[2] = GST-BRD4 (BD1+BD2) vs biotinylated acetyl-histone H4 peptide, AlphaScreen, read-out: BRD4 IC50

| Structure (SMILES) | IC50 [1] | IC50 [2] |
| --- | --- | --- |
| Cc1nnc2c(NCCCCNC(=O)OC(C)(C)C)nc3ccc(F)cc3n12 [Example 47, [4-(8-fluoro-1-methyl-[1,2,4]triazolo[4,3-a]quinoxaline-4-ylamino)-butyl]-carbamic acid-tert-butylester] | ≤ 50 nM | 42 nM |
| Cc1nnc2c(NCCCCNC(=O)OC(C)(C)C)nc3cc(C(=O)NCc4ccc(Cl)cc4)ccc3n12 [Example 211, {4-[7-(4-chloro-benzylcarbamoyl)-1-methyl-[1,2,4]triazolo[4,3-a]quinoxaline-4-ylamino]-butyl}-carbamic acid-tert-butylester] | ≤ 50 nM | 34 nM |
| Cc1nnc2c(NCCCCNC(=O)CC(C)C)nc3cc(Cl)c(Cl)cc3n12 [Example 30, N-[4-(7,8-dichloro-1-methyl-[1,2,4]triazolo[4,3-a]quinoxaline-4-ylamino)-butyl]-3-methyl-butyramide] | ≤ 10 nM |  |
| Cc1nnc2c(NCCCCNC(=O)c3ccccc3Cl)nc3cc(Cl)c(Cl)cc3n12 [Example 32] |  | 89 nM |
| Cc1ccc2nc(NCCCCNC(=O)c3ccccc3)c3nnc(C)n3c2c1 [Example 45, N-[4-(1,8-dimethyl-[1,2,4]triazolo[4,3-a]quinoxaline-4-ylamino)-butyl]-benzamide] | ≤ 50 nM |  |
| COc1cc2c(cc1C)nc(NCCCCNC(=O)[C@H](O)C(C)C)c1nnc(C)n12 [Example 152, 2-(R)-hydroxy-N-[4-(8-methoxy-1,7-dimethyl-[1,2,4]triazolo[4,3-a]quinoxaline-4-ylamino)-butyl]-3-methyl-butyramide] |  | 96 nM |
| COCCOc1ccc2c(c1)nc(NCCCCNC(=O)C(C)C)c1nnc(C)n12 [Example 376, {4-[7-(2-methoxy-ethoxy)-1-methyl-[1,2,4]triazolo[4,3-a]quinoxaline-4-ylamino]-butyl}-isobutyramide] | ≤ 50 nM |  |

The remaining lines, values ahead:

| IC50 [1] | IC50 [2] | Structure (SMILES) |
| --- | --- | --- |
| ≤ 50 nM | 30 nM | COc1ccc2c(nc(NCCCCNC(=O)OC(C)(C)C)c3nnc(C)n32)c1Cl [Example 459, [4-(6-chloro-7-methoxy-1-methyl-[1,2,4]triazolo[4,3-a]quinoxaline-4-ylamino)-butyl]-carbamic acid-tert-butylester] |
| ≤ 10 nM | 7 nM | Cc1noc(C)c1-c1ccc2c(c1)nc(NCCCCNC(=O)[C@@H](O)C(C)C)c1nnc(C)n12 [Example 587, N-{4-[7-(3,5-dimethyl-isoxazol-4-yl)-1-methyl-[1,2,4]triazolo[4,3-a]quinoxaline-4-ylamino]-butyl}-2-(S)-hydroxy-3-methyl-butyramide] |
| ≤ 10 nM | 4 nM | COCCOc1ccc2c(c1)nc(NCCCCNC(=O)SC(C)C)c1nnc(C)n12 [Example 428, {4-[7-(2-methoxy-ethoxy)-1-methyl-[1,2,4]triazolo[4,3-a]quinoxaline-4-ylamino]-butyl}-thiocarbamic acid-S-isopropylester] |
|  | 78 nM | Cc1nnc2c(NCCCCCC(=O)NC(C)C)nc3ccccc3n12 [Example 661, 6-(1-methyl-[1,2,4]triazolo[4,3-a]quinoxaline-4-ylamino)-hexanoic acid isopropylamide] |
|  | 56 nM | COc1cc2nc(NCCCCCNC(=O)OC(C)(C)C)c3nnc(C)n3c2cc1OC [Example 642, [5-(7,8-dimethoxy-1-methyl-[1,2,4]triazolo[4,3-a]quinoxaline-4-ylamino)-pentyl]-carbamic acid-tert-butylester] |
|  | 52 nM | COCCOc1ccc2c(c1)nc(NCCCCNC(=O)c1ccccn1)c1nnc(C)n12 [Example 416, pyridine-2-carboxylic acid-{4-[7-(2-methoxy-ethoxy)-1-methyl-[1,2,4]triazolo[4,3-a]quinoxaline-4-ylamino]-butyl}-amide] |
| ≤ 50 nM | 49 nM | COCCOc1ccc2c(c1)nc(NCCCCNC(=O)C(C)(C)O)c1nnc(C)n12 [Example 385, 2-hydroxy-N-{4-(7-(2-methoxy-ethoxy)-1-methyl-[1,2,4]triazolo[4,3-a]quinoxaline-4-ylamino)-butyl}-2-methyl-propionamide] |
